Consider 13 compounds from patent US20240140941A1, “DERIVATIVE OF 2,5-DIKETOPIPERAZINE COMPOUND, AND PREPARATION METHOD THEREFOR, PHARMACEUTICAL COMPOSITION THEREOF AND USE THEREOF” (DALIAN WZ PROBIOTICS AD HEALTH CO., LTD, priority 2020, published 2024).

One may read the IC50 as the point on the concentration scale where inhibition reaches its midpoint. By solubility is commonly meant the concentration that dissolves in the medium under given conditions. What is called melting point is the temperature, or range, at which the solid turns liquid.

SMILES strings stand for the structures. Structures can show the parent of a compound that is named as a salt. Where two headings read alike, the source gives them in different places.

In one data set the test system is HCC-LM3. The experiment in a line: Inhibition test on cell proliferation (MTT), HCC-LM3. The data set is classed as cell-based, human. The following applies: 72 hours of drug treatment, MTT, read-out: IC50 (nM) HCC-LM3. An outline of the steps:
(§1)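 Cells plated at 2000-6000 per well, allowed to adhere for 24 h, then exposed to serially diluted compound for 72 h at 37 °C, 5% CO2. Viability read by MTT reduction, with formazan dissolved in DMSO and absorbance taken at 490 nm. Inhibition rate calculated relative to untreated and zero-setting wells.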

The subject of the next data set is NCI-H460. The experiment in a line: Inhibition test on cell proliferation (MTT), NCI-H460. The data set is classed as cell-based, human. The settings on record: 72 hours of drug treatment, MTT, read-out: IC50 (nM) NCI-H460. An outline of the steps: as §1
The subject of the next data set is HT-29. The data set can be described thus: Inhibition test on cell proliferation (MTT), HT-29. In kind it is cell-based, human. The settings on record: 72 hours of drug treatment. An outline of the steps: as §1
Data set [1] in a line: Compound solubility experiment, Method 2: about 2 mg salt in 0.2 mL ultrapure water, dissolution observed. The settings on record: 37 °C, thermodynamic from solid, salts, 37±1° C., shaken 24 hours. The data set is classed as physicochemical. How it is done:
Method 2: A 0.5 mL brown EP tube was taken, about 2 mg of hydrochloride of derivatives of 2,5-diketopiperazine compounds was weighed respectively, and 0.2 mL of ultrapure water was added thereto. The mixture was vortexed, put into an incubation shaker, maintained at a temperature of (37±1° C.), shaken at 100 r/min for 24 hours, so as to achieve full dissolution equilibrium. The dissolution of the mixture was observed.

The next data set concerns BxPC-3. The experiment in a line: Inhibition test on cell proliferation (MTT), BxPC-3. The settings on record: 72 hours of drug treatment, MTT, read-out: IC50 (nM) BxPC-3. In kind it is cell-based, human. Summed up: as §1
Data set [2] is described as follows: Compound solubility experiment, Method 1: equilibrium solubility in pure water, LC-MS. The data set is classed as physicochemical. The following applies: 37 °C, thermodynamic from solid; ultrapure water, 37±1° C., shaken 24 hours. The procedure: Method 1: A 1.5 mL brown EP tube was taken, about 1 mg of compound was weighed respectively, and 1 mL of ultrapure water was added thereto. The mixture was vortexed, and sonicated until the compound was no longer dissolved (the solution was turbid or had suspended particles). The mixture was put into an incubation shaker, maintained at a temperature of (37±1° C.), shaken at 100 r/min for 24 hours, so as to achieve full dissolution equilibrium. After 24 hours, the supernatant was quickly filtered through a 0.45 μm microporous membrane, and the initial filtrate was discarded. 200 μL of the renewed filtrate was taken and diluted with 200 μL of methanol. The assay was repeated at least three times. According to the chromatographic conditions, the sample was injected by LC-MS, and the peak area was measured and the equilibrium solubility of each 2,5-diketopiperazine derivative in pure water was calculated.

As to `CC(C)c1c(/C=c2\[nH]c(=O)/c(=C/c3cccc(Oc4ccc(F)cc4)c3)[nH]c2=O)ncn1CCCN1CCOCC1` [PLN-2-2-1, hydrochloride], the IC50 amounted to 1.76 ± 0.3 nM in the data set with HCC-LM3 (hydrochloride), 2.8 ± 1.15 nM in the data set with NCI-H460 (hydrochloride), 1.5 ± 0.58 nM with HT-29 (hydrochloride) and 1.21 ± 0.21 nM with BxPC-3 (hydrochloride). Moreover, in data set [1], the solubility at 24 h was greater than 10000 µg/mL.
Compound `CC(C)c1c(/C=c2\[nH]c(=O)/c(=C/c3cccc(Oc4ccc(F)cc4)c3)[nH]c2=O)ncn1CCCN1CCOCC1` [PLN-2-2] registered a melting point of 194 to 195 °C. Also, the solubility at 24 h in data set [2] was less than 0.5 µg/mL. Moreover, the IC50 in the data set on HCC-LM3 worked out at 5.58 ± 1.03 nM. Further, the IC50 in the data set with NCI-H460 (Homo sapiens, NCI-H460, 72 h) amounted to 5.25 ± 0.49 nM. It took 3.83 ± 0.43 nM to reach half-maximal inhibition with HT-29 (IC50). In the data set with BxPC-3, the IC50 was 4.63 ± 0.16 nM.
For `O=c1[nH]/c(=C\c2ncn(CCCN3CCOCC3)c2C2CC2)c(=O)[nH]/c1=C\c1cccc(Oc2ccc(F)cc2)c1` [PLN-2-4-1, (3Z,6Z)-3-(3-(p-Fluorophenoxy)phenyl)methylene-6-((5-cyclopropyl-1-(3-morpholinyl)propylimidazol-4-yl)methylene)piperazine-2,5-dione, hydrochloride], the IC50 in the data set on NCI-H460 (hydrochloride) came to 23.8 ± 1.36 nM. Further, the solubility at 24 h in data set [1] is greater than 10000 µg/mL.
With `CC(C)c1c(/C=c2\[nH]c(=O)/c(=C/c3ccccc3)[nH]c2=O)ncn1CCCN1CCOCC1` [PLN-2-5, (3Z,6Z)-3-benzylidene-6-((5-isopropyl-1-(−3-morpholinyl)propylimidazol-4-yl)methylene)piperazine-2,5-dione], the melting point was 199.1 to 201.1 °C. Further, the solubility at 24 h in data set [2] was less than 0.5 µg/mL. In the data set on HCC-LM3 (Homo sapiens, HCCLM3, 72 h), the IC50 was found to be 9.78 ± 2.21 nM. Moreover, in the data set with NCI-H460 (Homo sapiens, NCI-H460, 72 h), the 50% inhibitory concentration (IC50) turned out to be 19.4 ± 1.63 nM. In the data set with HT-29 (Homo sapiens, HT-29, 72 h), this compound displayed an IC50 of 11.8 ± 1.31 nM. For the same compound, the IC50 with BxPC-3 (Homo sapiens, BXPC-3, 72 h) worked out at 12.5 ± 1.47 nM.
As for `CC(C)c1c(/C=c2\[nH]c(=O)/c(=C/c3ccccc3)[nH]c2=O)ncn1CCCN1CCOCC1` [PLN-2-5-1, (3Z,6Z)-3-Benzylidene-6-((5-isopropyl-1-(3-morpholinyl)propylimidazol-4-yl)methylene)piperazine-2,5-dione, hydrochloride], the IC50 in the data set on HCC-LM3 (hydrochloride) turned out to be 12.4 ± 2.68 nM; with NCI-H460 (hydrochloride), 17.8 ± 0.55 nM; in the data set on HT-29 (hydrochloride), 11.8 ± 5.52 nM; in the data set on BxPC-3 (hydrochloride) it was 9.73 ± 0.3 nM. Also, in data set [1], the solubility at 24 h was greater than 10000 µg/mL.
Compound `CC(C)c1c(/C=c2\[nH]c(=O)/c(=C/c3cc(F)ccc3F)[nH]c2=O)ncn1CCCN1CCOCC1` [PLN-2-7, (3Z,6Z)-3-(2,5-difluorophenyl)methylene-6-((5-isopropyl-1-(3-morpholinyl)propylimidazol-4-yl)methylene)piperazine-2,5-dione] showed a melting point of 211.6 to 213.6 °C. In data set [2], this compound displayed a solubility at 24 h of less than 0.5 µg/mL. Also, in the data set on HCC-LM3 (Homo sapiens, HCCLM3, 72 h), the IC50 worked out at 3.3 ± 1.88 nM. Moreover, the IC50 in the data set on NCI-H460 (Homo sapiens, NCI-H460, 72 h) turned out to be 6.12 ± 0.43 nM. This compound also gave an IC50 in the data set with HT-29 (Homo sapiens, HT-29, 72 h) of 4.03 ± 0.19 nM. Besides, the concentration for half-maximal inhibition (IC50) with BxPC-3 (Homo sapiens, BXPC-3, 72 h) stood at 4.92 ± 1.48 nM.
With `CC(C)c1c(/C=c2\[nH]c(=O)/c(=C/c3cc(F)ccc3F)[nH]c2=O)ncn1CCCN1CCOCC1` [PLN-2-7-1, (3Z,6Z)-3-(2,5-Difluorophenyl)methylene-6-((5-isopropyl-1-(3-morpholinyl)propylimidazol-4-yl)methylene)piperazine-2,5-dione, hydrochloride], the 50% inhibitory concentration (IC50) with HCC-LM3 (hydrochloride) was found to be 4 ± 1.5 nM; in the data set with NCI-H460 (hydrochloride), 6.93 ± 4.85 nM; in the data set on HT-29 (hydrochloride), 5.61 ± 1.96 nM; with BxPC-3 (hydrochloride) it was 4.83 ± 0.2 nM. The solubility at 24 h in data set [1] was greater than 10000 µg/mL.
The matching figures for `CC(C)c1c(/C=c2\[nH]c(=O)/c(=C/c3cccc(F)c3)[nH]c2=O)ncn1CCCN1CCOCC1` [PLN-2-9-1, (3Z,6Z)-3-(3-Fluorophenyl)methylene-6-((5-isopropyl-1-(3-morpholinyl)propylimidazol-4-yl)methylene)piperazine-2,5-dione, hydrochloride]: 6.99 ± 0.59 nM, 8.87 ± 0.05 nM, 6.22 ± 1.61 nM, 5.76 ± 1 nM and greater than 10000 µg/mL.
Take `O=c1[nH]/c(=C\c2ncn(CCCN3CCOCC3)c2C2CC2)c(=O)[nH]/c1=C\c1cccc(F)c1` [PLN-2-10, (3Z,6Z)-3-m-fluorophenylmethylene-6-((5-cyclopropyl-1-(−3-morpholinyl)propylimidazol-4-yl)methylene)piperazine-2,5-dione]: the solubility at 24 h in data set [2] was less than 0.5 µg/mL. For the same compound, the IC50 in the data set on HCC-LM3 (Homo sapiens, HCCLM3, 72 h) is 14.9 ± 0.22 nM; with NCI-H460 (Homo sapiens, NCI-H460, 72 h) it was 17.7 ± 5.18 nM; with HT-29 (Homo sapiens, HT-29, 72 h), 10.6 ± 1.27 nM; in the data set with BxPC-3 (Homo sapiens, BXPC-3, 72 h), 8.97 ± 0.74 nM.
On to `O=c1[nH]/c(=C\c2ncn(CCCN3CCOCC3)c2C2CC2)c(=O)[nH]/c1=C\c1cccc(F)c1` [PLN-2-10-1, (3Z,6Z)-3-(3-Fluorophenyl)methylene-6-((5-cyclopropyl-1-(3-morpholinyl)propylimidazol-4-yl)methylene)piperazine-2,5-dione, hydrochloride], for which the 50% inhibitory concentration (IC50) amounted to 12 ± 2.67 nM with HCC-LM3 (hydrochloride), 18.37 ± 0.13 nM with NCI-H460 (hydrochloride), 11.1 ± 1.39 nM in the data set with HT-29 (hydrochloride) and 12 ± 1.27 nM with BxPC-3 (hydrochloride). The solubility at 24 h in data set [1] is greater than 10000 µg/mL.
The matching figures for `CC(C)c1c(/C=c2\[nH]c(=O)/c(=C/c3cc(F)cc(F)c3)[nH]c2=O)ncn1CCCN1CCOCC1` [PLN-2-62-1, (3Z,6Z)-3-(3,5-Difluorophenyl)methylene-6-((5-isopropyl-1-(3-morpholinyl)propylimidazol-4-yl)methylene)piperazine-2,5-dione, hydrochloride]: 5.32 ± 1.38 nM, 6.87 ± 0.47 nM, 3.79 ± 0.04 nM, 3.75 ± 0.06 nM and greater than 10000 µg/mL.
Regarding `CC(C)c1c(/C=c2\[nH]c(=O)/c(=C/c3cc(F)cc(F)c3)[nH]c2=O)ncn1CCCN1CCOCC1` [PLN-2-62], in data set [2], the solubility at 24 h was less than 0.5 µg/mL. In addition, the 50% inhibitory concentration (IC50) in the data set on HCC-LM3 (Homo sapiens, HCCLM3, 72 h) was 3.89 ± 0.16 nM; in the data set on NCI-H460 (Homo sapiens, NCI-H460, 72 h), 4.17 ± 0.75 nM; in the data set on HT-29 (Homo sapiens, HT-29, 72 h) it was 3.49 ± 0.23 nM; in the data set on BxPC-3 (Homo sapiens, BXPC-3, 72 h), 3.44 ± 0.12 nM.
In the case of `CC(C)c1c(/C=c2\[nH]c(=O)/c(=C/c3ccc(F)c(F)c3)[nH]c2=O)ncn1CCCN1CCOCC1` [PLN-2-63-1, hydrochloride], the concentration for half-maximal inhibition (IC50) in the data set on HCC-LM3 (hydrochloride) turned out to be 66.6 ± 4.98 nM; with NCI-H460 (hydrochloride) it was 94.7 ± 9.48 nM; in the data set on BxPC-3 (hydrochloride), 50.1 ± 7.79 nM. Also, the solubility at 24 h in data set [1] was greater than 10000 µg/mL.
